Read-outs that look alike come from different tables or passages of the source.
What was measured:
[1] = pH characteristics of triazole derivatives (fluorescence intensity vs pH); format: physicochemical; settings: 1 μM in sodium phosphate buffers; for pKa: sodium phosphate buffers of various pH, from fluorescence intensity vs pH
Description: Triazole derivatives prepared by the method disclosed in U.S. Pat. No. 5,874,590 (DAF-2T and DAF-5T, the structures thereof are shown below) and DAF-FM T were dissolved at 1 μM in sodium phosphate buffers adjusted to each of the pH values, and fluorescence intensity was measured. The excitation wavelength and fluorescence wavelength were 495-515 (nm) for DAF-2T, 505-520 (nm) for DAF-5T and 495-515 (nm) for DAF-FMT, respectively. […] As for DAF-FM T, a dissociable proton was not present in the triazole ring, and therefore the compound was not influenced by pKa and it gave a constant fluorescence intensity at pH 5.8 or higher.

[2] = Photostability under direct sunlight irradiation; format: physicochemical; settings: 1 μM in 0.1 M sodium phosphate buffer pH 7.4, direct sunlight; versus DAF-1T, DAF-2T, DAF-4T, DAF-5T
Description: Photostability of the triazole derivatives produced by the method disclosed in U.S. Pat. No. 5,874,590 (DAF-1T, DAF-2T, DAF-4T and DAF-5T, the structures thereof are shown below) and DAF-FM T was tested by direct irradiation with sunlight. The dyes were each dissolved in 0.1 M sodium phosphate buffer (pH 7.4) at a concentration of 1 μM, and the solution was put into vials and exposed to direct sunlight under fine weather for a certain period of time. Samples were collected from the solutions, and fluorescence intensity was measured and compared with respective initial values.

[3] = tested on: Bovine aorta endothelial cells; assay: Measurement of extracellularly produced nitrogen monoxide; format: cell-based; settings: 7 μM in PBS(+), 37° C., Ex 500 nm, Em 515 nm, stimulation with A23187, control with inhibitor of nitrogen monoxide synthetase
Description: Bovine aorta endothelial cells were cultured, and the cells were removed with trypsin and collected by centrifugation, and then suspended in 2 ml of PBS(+) in which DAF-FM (7 μM) was dissolved. These cells were transferred to a cell for fluorescence measurement, and fluorescence intensity was measured (Ex.: 500 nm, Em.: 515 nm) at 37° C. with stirring. The cells were stimulated with a calcium ionophore A23187 during the measurement so that the cells generated nitrogen monoxide. As control experiments, an inhibitor of nitrogen monoxide synthetase was added after the above measurement, or alternatively, the measurement was performed in the presence of the inhibitor from the beginning.

[4] = read-out: pKa of the hydroxyl group
[5] = read-out: pKa of the proton of the triazole ring

SMILES	pKa [1, 4]	pKa [1, 5]	pH at which fluorescence intensity is constant ([1]; Ex/Em 495-515 nm)	photostability (fluorescence intensity compared with initial value) [2]	fluorescence intensity increase on nitrogen monoxide generation by the cells [3]
O=C1OC2(c3ccc(O)cc3Oc3cc(O)ccc32)c2cc3nn[nH]c3cc21 [DAF-2T]	6.27	7.94			
O=C1OC2(c3cc(Cl)c(O)cc3Oc3cc(O)c(Cl)cc32)c2cc3nn[nH]c3cc21 [DAF-5T]	4.59	7.41			
Cn1nnc2c3c(ccc21)C1(OC3=O)c2cc(F)c(O)cc2Oc2cc(O)c(F)cc21 [DAF-FM T, 2″,7″-Difluoro-3″,6″-dihydroxy-spiro[1′-methyltriazolo[4′,5′:4,5]isobenzofuran-1(3H),9″-[9H]xanthen]-3-one]	4.38		≥ 5.8	higher photostability than the other triazole compounds	
CNc1ccc2c(c1N)C(=O)OC21c2cc(F)c(O)cc2Oc2cc(O)c(F)cc21 [DAF-FM, 4-Amino-5-(N-methylamino)-2′,7′-difluoro-3′,6′-dihydroxy-spiro[isobenzofuran-1(3H),9′-[9H]xanthen]-3-one]					increase of fluorescence intensity was caused by nitrogen monoxide

From patent publication US7618997B2, “Diaminofluorescein derivatives” (Sekisui Medical Co., Ltd., priority 2000, dated 2009)
